# Test results taken from paper PMC8007111, “Novel Potent Muscarinic Receptor Antagonists: Investigation on the Nature of Lipophilic Substituents in the 5- and/or 6-Positions of the 1,4-Dioxane Nucleus” (Journal of Medicinal Chemistry, 2020).
# Experiments:
# Details in all cases: [3H]NMS, CHO-K1 cell membranes, mean ± S.E.M.
# hM3 mAChR = molecular target: T1, hM3 mAChR (Homo sapiens, UniProt P20309); assay: [3H]NMS inhibition radioligand binding, hM3 in CHO-K1 cell membranes
# T1 construct: expressed in transfected cells; host or cells: CHO-K1 (membrane preparation)
# Method: (§1) CHO-K1 cells stably transfected with the human muscarinic receptor subtypes (hM1–5) were grown in Dulbecco’s modified Eagle’s medium (DMEM) with nutrient mixture F12 (DMEM/F12, 50/50), containing 10% fetal bovine serum, penicillin (100 U/mL), streptomycin (100 U/mL), L-glutamine (4 mM), and geneticin (G-418, 50 μg/mL) at 37 °C in a 5% CO2 humidified incubator. […] Serum (0.7 mL) was added to inactivate the trypsin, and the cells were spun down by centrifuging at 300g for 5 min. The cells were then resuspended in ice-cold 25 mM sodium phosphate buffer containing 5 mM MgCl2, pH 7.4 (binding buffer) and homogenized using a cell disrupter (Ultra-Turrax, setting 3, 30 s). The homogenate was sedimented by centrifugation (17,000g, 15 min). The supernatant was discarded, and the resulting membrane pellets were resuspended with Ultra-Turrax in the same buffer to give a final protein concentration of 1–2 mg/mL. The protein content was determined by the method of Bradford (1976) with bovine serum albumin (Sigma) as a standard and stored at −80 °C.
# (§2) Inhibition radioligand binding assays were conducted as previously described[48],[49] with 0.2 nM [^3H]NMS in binding buffer in a final volume of 250 μL. Nonspecific binding was defined in the presence of 10 μM atropine. Briefly, membrane fractions (about 25–70 μg/mL of protein) were incubated with radioligand and unlabeled test compounds for 2 h at r.t. Bound and free radioactivity were separated by filtering the assay mixture through UniFilter GF/B plates using a FilterMate Cell Harvester (PerkinElmer Life and Analytical Science). The filter bound radioactivity was counted by a TopCount NXT Microplate Scintillation Counter (PerkinElmer Life and Analytical Science). Data (cpm) were normalized to percentage-specific binding and analyzed using a four-parameter logistic equation in GraphPad Prism 5.02; IC50 values were determined, and Ki values were calculated.[59]
# hM4 mAChR = molecular target: T2, hM4 mAChR (Homo sapiens, UniProt P08173); assay: [3H]NMS inhibition radioligand binding, hM4 in CHO-K1 cell membranes
# T2 construct: expressed in transfected cells; host or cells: CHO-K1 (membrane preparation)
# T2 sequence (P08173 1-479): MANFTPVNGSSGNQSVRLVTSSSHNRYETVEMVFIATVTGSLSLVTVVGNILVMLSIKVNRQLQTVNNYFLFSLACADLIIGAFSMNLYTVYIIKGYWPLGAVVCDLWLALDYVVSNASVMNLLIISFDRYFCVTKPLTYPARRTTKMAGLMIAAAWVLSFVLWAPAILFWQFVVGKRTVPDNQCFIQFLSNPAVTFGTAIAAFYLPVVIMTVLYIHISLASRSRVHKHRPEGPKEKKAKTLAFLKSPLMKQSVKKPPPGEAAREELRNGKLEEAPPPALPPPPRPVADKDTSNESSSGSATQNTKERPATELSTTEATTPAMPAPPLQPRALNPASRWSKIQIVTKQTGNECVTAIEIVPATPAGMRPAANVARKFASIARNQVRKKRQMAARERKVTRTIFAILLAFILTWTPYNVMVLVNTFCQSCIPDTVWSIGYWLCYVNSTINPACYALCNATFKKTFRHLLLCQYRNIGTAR
# Method: as §1, §2
# hM2 mAChR = molecular target: T3, hM2 mAChR (Homo sapiens, UniProt P08172); assay: [3H]NMS inhibition radioligand binding, hM2 in CHO-K1 cell membranes
# T3 construct: expressed in transfected cells; host or cells: CHO-K1 (membrane preparation)
# T3 sequence (P08172 1-466): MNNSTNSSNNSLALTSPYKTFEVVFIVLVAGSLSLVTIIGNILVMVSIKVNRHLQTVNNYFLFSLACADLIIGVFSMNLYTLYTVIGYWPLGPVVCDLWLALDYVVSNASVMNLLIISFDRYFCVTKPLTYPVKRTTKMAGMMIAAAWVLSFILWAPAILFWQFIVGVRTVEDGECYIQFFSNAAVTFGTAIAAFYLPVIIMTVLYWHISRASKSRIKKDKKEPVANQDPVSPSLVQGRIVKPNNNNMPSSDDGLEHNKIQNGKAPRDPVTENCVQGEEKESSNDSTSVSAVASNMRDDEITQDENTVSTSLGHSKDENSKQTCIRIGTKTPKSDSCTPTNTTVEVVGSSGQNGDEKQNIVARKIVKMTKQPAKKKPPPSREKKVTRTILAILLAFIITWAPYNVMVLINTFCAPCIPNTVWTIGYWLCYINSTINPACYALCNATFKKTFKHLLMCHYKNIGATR
# Method: as §1, §2
# hM1 mAChR = molecular target: T4, hM1 mAChR (Homo sapiens, UniProt P11229); assay: [3H]NMS inhibition radioligand binding, hM1 in CHO-K1 cell membranes
# T4 construct: expressed in transfected cells; host or cells: CHO-K1 (membrane preparation)
# T4 sequence (P11229 1-460): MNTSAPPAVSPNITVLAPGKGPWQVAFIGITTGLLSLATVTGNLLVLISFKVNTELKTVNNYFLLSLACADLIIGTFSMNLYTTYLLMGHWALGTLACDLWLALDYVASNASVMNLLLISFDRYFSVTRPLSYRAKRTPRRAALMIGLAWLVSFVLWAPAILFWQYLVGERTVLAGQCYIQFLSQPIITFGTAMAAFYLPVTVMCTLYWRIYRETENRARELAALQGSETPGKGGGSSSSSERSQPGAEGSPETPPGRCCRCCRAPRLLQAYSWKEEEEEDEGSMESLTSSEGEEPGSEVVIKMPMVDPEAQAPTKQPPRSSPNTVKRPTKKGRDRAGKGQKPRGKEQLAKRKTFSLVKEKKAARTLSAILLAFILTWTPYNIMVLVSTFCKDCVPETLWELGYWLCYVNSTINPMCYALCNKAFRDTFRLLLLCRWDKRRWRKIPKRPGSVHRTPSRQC
# Method: as §1, §2
# hM5 mAChR = molecular target: T5, hM5 mAChR (Homo sapiens, UniProt P08912); assay: [3H]NMS inhibition radioligand binding, hM5 in CHO-K1 cell membranes
# T5 construct: expressed in transfected cells; host or cells: CHO-K1 (membrane preparation)
# T5 sequence (P08912 1-532): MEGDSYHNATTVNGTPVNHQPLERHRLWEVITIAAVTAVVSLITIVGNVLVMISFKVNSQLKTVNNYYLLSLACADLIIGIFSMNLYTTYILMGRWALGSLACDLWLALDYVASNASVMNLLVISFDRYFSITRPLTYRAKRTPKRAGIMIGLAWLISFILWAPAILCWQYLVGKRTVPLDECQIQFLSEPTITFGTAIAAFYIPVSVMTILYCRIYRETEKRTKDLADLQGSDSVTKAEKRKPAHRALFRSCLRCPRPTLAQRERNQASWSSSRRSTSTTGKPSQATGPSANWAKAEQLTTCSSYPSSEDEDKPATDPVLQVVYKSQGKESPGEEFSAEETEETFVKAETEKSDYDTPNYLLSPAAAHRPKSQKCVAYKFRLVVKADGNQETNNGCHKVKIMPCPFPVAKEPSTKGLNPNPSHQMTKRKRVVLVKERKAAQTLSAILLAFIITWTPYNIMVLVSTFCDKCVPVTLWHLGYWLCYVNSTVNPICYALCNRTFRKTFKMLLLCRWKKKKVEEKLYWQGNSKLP
# Method: as §1, §2
# T1 sequence (P20309 whole entry): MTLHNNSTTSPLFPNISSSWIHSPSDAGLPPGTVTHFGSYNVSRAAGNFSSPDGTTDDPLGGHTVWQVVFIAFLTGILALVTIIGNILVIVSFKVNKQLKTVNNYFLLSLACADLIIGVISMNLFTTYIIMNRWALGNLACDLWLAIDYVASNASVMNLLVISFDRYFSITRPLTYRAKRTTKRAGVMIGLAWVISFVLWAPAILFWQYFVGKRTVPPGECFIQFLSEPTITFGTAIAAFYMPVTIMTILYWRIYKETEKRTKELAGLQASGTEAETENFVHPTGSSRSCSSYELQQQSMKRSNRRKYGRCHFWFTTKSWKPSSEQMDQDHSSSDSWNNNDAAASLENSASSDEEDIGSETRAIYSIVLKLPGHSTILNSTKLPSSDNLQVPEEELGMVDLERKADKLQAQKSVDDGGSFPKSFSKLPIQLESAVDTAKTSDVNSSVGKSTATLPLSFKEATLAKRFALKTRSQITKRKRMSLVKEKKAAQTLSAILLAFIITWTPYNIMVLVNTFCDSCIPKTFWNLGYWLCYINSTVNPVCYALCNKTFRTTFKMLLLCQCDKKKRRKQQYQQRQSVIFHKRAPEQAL
Ki (hM3 mAChR; read-out: pKi hM3 (converted)) [µM],Ki (hM4 mAChR; read-out: pKi hM4 (converted)) [µM],Ki (hM2 mAChR; read-out: pKi hM2 (converted)) [µM],Ki (hM1 mAChR; read-out: pKi hM1 (converted)) [µM],Ki (hM5 mAChR; read-out: pKi hM5 (converted)) [µM],pKi hM3 (hM3 mAChR),pKi hM4 (hM4 mAChR),pKi hM2 (hM2 mAChR),pKi hM1 (hM1 mAChR),pKi hM5 (hM5 mAChR),Compound
> 10,> 10,4.9,> 10,7.41,–,–,–,–,–,"C[N+](C)(C)CC1COCC(c2ccc(Cc3ccccc3)cc2)O1 (mixture of isomers) [5a/b, 1-((2R*,6S*)-6-(4-Benzylphenyl)-1,4-dioxan-2-yl)-N,N,N-trimethylmethanaminium Iodide and 1-((2R*,6R*)-6-(4-Benzylphenyl)-1,4-dioxan-2-yl)-N,N,N-trimethylmethanaminium Iodide]"
–,–,–,–,–,5.88 ± 0.14,5.42 ± 0.02,6.38 ± 0.10,5.17 ± 0.08,5.74 ± 0.16,"C[N+](C)(C)C[C@@H]1COC[C@@H](c2ccc([S+]([O-])c3ccccc3)cc2)O1.[I-] (relative stereo) [7b, 1-((2R*,6R*)-6-(4-(Phenylsulfinyl)phenyl)-1,4-dioxan-2-yl)-N,N,N-trimethylmethanaminium Iodide]"
–,–,–,–,–,<5,<5,5.13 ± 0.01,5.08 ± 0.09,5.21 ± 0.14,"C[N+](C)(C)C[C@@H]1COC[C@H](c2ccc(S(=O)(=O)c3ccccc3)cc2)O1.[I-] (relative stereo) [8a, 1-((2R*,6S*)-6-(4-(Phenylsulfonyl)phenyl)-1,4-dioxan-2-yl)-N,N,N-trimethylmethanaminium Iodide]"
–,–,–,–,–,5.63 ± 0.14,5.20 ± 0.07,6.70 ± 0.01,5.29 ± 0.07,5.80 ± 0.06,"C[N+](C)(C)C[C@@H]1COC[C@@H](c2ccc(S(=O)(=O)c3ccccc3)cc2)O1.[I-] (relative stereo) [8b, 1-((2R*,6R*)-6-(4-(Phenylsulfonyl)phenyl)-1,4-dioxan-2-yl)-N,N,N-trimethylmethanaminium Iodide]"

# Further lines, the compound ahead of its results:
Compound,Ki (hM3 mAChR; read-out: pKi hM3 (converted)) [µM],Ki (hM4 mAChR; read-out: pKi hM4 (converted)) [µM],Ki (hM2 mAChR; read-out: pKi hM2 (converted)) [µM],Ki (hM1 mAChR; read-out: pKi hM1 (converted)) [µM],Ki (hM5 mAChR; read-out: pKi hM5 (converted)) [µM],pKi hM3 (hM3 mAChR),pKi hM4 (hM4 mAChR),pKi hM2 (hM2 mAChR),pKi hM1 (hM1 mAChR),pKi hM5 (hM5 mAChR)
"C[N+](C)(C)C[C@@H]1COC[C@H](c2ccc(-c3ccccc3)cc2)O1.[I-] (relative stereo) [4a, 1-((2R*,6S*)-6-([1,1′-Biphenyl]-4-yl)-1,4-dioxan-2-yl)-N,N,N-trimethylmethanaminium Iodide]",–,–,–,–,–,<5,<5,5.06 ± 0.02,<5,<5
"C[N+](C)(C)C[C@@H]1COC[C@@H](c2ccc(-c3ccccc3)cc2)O1.[I-] (relative stereo) [4b, 1-((2R*,6R*)-6-([1,1′-Biphenyl]-4-yl)-1,4-dioxan-2-yl)-N,N,N-trimethylmethanaminium Iodide]",–,–,–,–,–,<5,<5,5.27 ± 0.12,<5,<5
"C[N+](C)(C)C[C@@H]1COC[C@H](c2ccc(Sc3ccccc3)cc2)O1.[I-] (relative stereo) [6a, 1-((2R*,6S*)-6-(4-(Phenylthio)phenyl)-1,4-dioxan-2-yl)-N,N,N-trimethylmethanaminium Iodide]",–,–,–,–,–,<5,5.43 ± 0.05,5.47 ± 0.07,5.50 ± 0.05,5.58 ± 0.13
"C[N+](C)(C)C[C@@H]1COC[C@@H](c2ccc(Sc3ccccc3)cc2)O1.[I-] (relative stereo) [6b, 1-((2R*,6R*)-6-(4-(Phenylthio)phenyl)-1,4-dioxan-2-yl)-N,N,N-trimethylmethanaminium Iodide]",–,–,–,–,–,5.77 ± 0.05,5.70 ± 0.02,6.71 ± 0.01,5.51 ± 0.01,5.95 ± 0.13
"C[N+](C)(C)C[C@@H]1COC[C@H](c2ccc([S+]([O-])c3ccccc3)cc2)O1.[I-] (relative stereo) [7a, 1-((2R*,6S*)-6-(4-(Phenylsulfinyl)phenyl)-1,4-dioxan-2-yl)-N,N,N-trimethylmethanaminium Iodide]",–,–,–,–,–,<5,<5,5.52 ± 0.02,<5,5.21 ± 0.08
"C[N+](C)(C)C[C@@H]1CO[C@H](c2ccccc2)CO1.[I-] (relative stereo) [9a, 1-((2R*,5R*)-5-Phenyl-1,4-dioxan-2-yl)-N,N,N-trimethylmethanaminium Iodide]",–,–,–,–,–,5.14 ± 0.10,5.10 ± 0.07,5.06 ± 0.10,5.63 ± 0.07,<5
"C[N+](C)(C)C[C@@H]1CO[C@@H](c2ccccc2)CO1.[I-] (relative stereo) [9b, 1-((2R*,5S*)-5-Phenyl-1,4-dioxan-2-yl)-N,N,N-trimethylmethanaminium Iodide]",–,–,–,–,–,<5,<5,<5,<5,<5
"C[N+](C)(C)C[C@@H]1CO[C@@](c2ccccc2)(C2CCCCC2)CO1.[I-] (relative stereo) [11a, 1-((2R*,5R*)-5-Cyclohexyl-5-phenyl-1,4-dioxan-2-yl)-N,N,N-trimethylmethanaminium Iodide]",–,–,–,–,–,7.43 ± 0.09,7.15 ± 0.09,7.26 ± 0.08,8.01 ± 0.06,7.45 ± 0.08
